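Protocol summary: plate cells (96-well), add compound at 5 concentrations, incubate 48 h, interpolate endpoints linearly. At the GI50, growth is halved.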 Activity calls are given as the source filed them. No stated cut-off is given here; in the data, active = GI50 up to about 1.1 µM and inactive = higher.
Columns and labels:
Assay in all cases: NCI tumour cell line growth inhibition, 48 h
[1] = tested on: HCC 2998
[2] = tested on: OVCAR-3
[3] = tested on: SK-MEL-2
[4] = tested on: MDA-MB-435
[5] = tested on: DU-145
[6] = tested on: MDA-MB-231
[7] = tested on: OVCAR-8
[8] = tested on: NCI-H23
[9] = tested on: KM12
[10] = tested on: HOP-92
[11] = tested on: TK-10
[12] = tested on: MOLT-4
[13] = tested on: SR
[14] = tested on: ACHN
[15] = tested on: SW-620
[16] = tested on: RPMI-8226
[17] = tested on: UACC-257
[18] = tested on: HT-29
[19] = tested on: IGROV-1
[20] = tested on: SK-MEL-28

Compound	GI50 [1]	GI50 [2]	GI50 [3]	GI50 [4]	GI50 [5]	GI50 [6]	GI50 [7]	GI50 [8]	GI50 [9]	GI50 [10]	GI50 [11]	GI50 [12]	GI50 [13]	GI50 [14]	GI50 [15]	GI50 [16]	GI50 [17]	GI50 [18]	GI50 [19]	GI50 [20]
Clc1nc2c(C#Cc3ccccc3)ncnc2n1C1CCCCO1 (stereo not given)	14.7 µM (inactive)	14.8 µM (inactive)	12.9 µM (inactive)	7 µM (inactive)	19 µM (inactive)	16.6 µM (inactive)	19.9 µM (inactive)	12.9 µM (inactive)	14 µM (inactive)	14.8 µM (inactive)	20.5 µM (inactive)	17.7 µM (inactive)	4.37 µM (inactive)	16.1 µM (inactive)	16.3 µM (inactive)	4.12 µM (inactive)	15 µM (inactive)	12.4 µM (inactive)	13.5 µM (inactive)	26.5 µM (inactive)
c1ccc2c(c1)CCc1c-2n(CCN2CCOCC2)c2ccccc12	14.3 µM (inactive)	> 100 µM (inactive)	11.8 µM (inactive)	> 100 µM (inactive)	> 100 µM (inactive)	> 100 µM (inactive)	> 100 µM (inactive)	> 100 µM (inactive)	13.5 µM (inactive)	17.8 µM (inactive)	> 100 µM (inactive)	29.9 µM (inactive)	15 µM (inactive)	> 100 µM (inactive)	> 100 µM (inactive)	35.2 µM (inactive)	32.9 µM (inactive)	13.2 µM (inactive)	11.7 µM (inactive)	34.6 µM (inactive)
CN(C)/N=C1\C=C2CC[C@H](O[Si](C)(C)C(C)(C)C)[C@@]2(C)CC1	16.9 µM (inactive)	14.5 µM (inactive)	16.2 µM (inactive)	16.4 µM (inactive)	15.8 µM (inactive)	16.6 µM (inactive)	16.9 µM (inactive)	23.2 µM (inactive)	16.4 µM (inactive)	15.2 µM (inactive)	19.7 µM (inactive)	12.9 µM (inactive)	18.6 µM (inactive)	16.5 µM (inactive)	17.5 µM (inactive)	4.4 µM (inactive)	16.7 µM (inactive)	19 µM (inactive)	21.7 µM (inactive)	15.9 µM (inactive)
COc1ccc(C(=O)/C=C/c2ccc(O)c(O)c2)c(OC)c1	1.21 µM (inactive)	0.242 µM (active)	2.77 µM (inactive)	0.47 µM (active)	3.16 µM (inactive)	2.71 µM (inactive)	10.8 µM (inactive)	2.31 µM (inactive)	1.01 µM (active)	28.8 µM (inactive)	6.14 µM (inactive)	2.79 µM (inactive)	0.337 µM (active)	10.9 µM (inactive)	1.22 µM (inactive)	0.7 µM (active)	3.87 µM (inactive)	7.76 µM (inactive)	0.887 µM (active)	7.6 µM (inactive)
Cc1nc2ccc(S(=O)(=O)Nc3ccccc3)cc2c(=O)n1NC(=O)CNc1ccccc1	> 100 µM (inactive)	> 100 µM (inactive)	> 100 µM (inactive)	> 100 µM (inactive)	> 100 µM (inactive)	> 100 µM (inactive)	> 100 µM (inactive)	> 100 µM (inactive)	> 100 µM (inactive)	> 100 µM (inactive)	> 100 µM (inactive)	> 100 µM (inactive)	> 100 µM (inactive)	> 100 µM (inactive)	> 100 µM (inactive)	> 100 µM (inactive)	> 100 µM (inactive)	> 100 µM (inactive)	67.3 µM (inactive)	> 100 µM (inactive)
COc1cc2c(/C=C3/C(=O)Nc4ccccc43)c(Cl)n(Cc3ccc(Cl)cc3)c2cc1C	0.134 µM (active)	0.207 µM (active)	1.16 µM (inactive)	0.193 µM (active)	0.306 µM (active)	0.216 µM (active)	0.299 µM (active)	0.24 µM (active)	0.33 µM (active)	11.8 µM (inactive)	0.565 µM (active)	0.264 µM (active)	0.209 µM (active)	0.324 µM (active)	0.472 µM (active)	0.27 µM (active)	0.378 µM (active)	0.296 µM (active)	0.538 µM (active)	0.386 µM (active)
CC(C)(C)NC(=O)/C(=C\Sc1ccccc1)c1ccccc1	> 100 µM (inactive)	> 100 µM (inactive)	> 100 µM (inactive)	> 82.8 µM (inactive)	> 100 µM (inactive)	> 95.5 µM (inactive)	> 60 µM (inactive)	> 41.7 µM (inactive)	> 100 µM (inactive)	2.54 µM (inactive)	> 100 µM (inactive)	23.2 µM (inactive)	46.6 µM (inactive)	> 100 µM (inactive)	> 100 µM (inactive)	19.6 µM (inactive)	> 100 µM (inactive)	> 100 µM (inactive)	> 100 µM (inactive)	> 100 µM (inactive)
C/C(=C\c1ccccc1)C(=O)NCc1ccc(C(=O)NCCc2c[nH]c3ccccc23)cc1	16 µM (inactive)	42 µM (inactive)	> 100 µM (inactive)	78 µM (inactive)	> 100 µM (inactive)	> 100 µM (inactive)	> 100 µM (inactive)	80.4 µM (inactive)	33.2 µM (inactive)	> 100 µM (inactive)	16.4 µM (inactive)	60.7 µM (inactive)	> 100 µM (inactive)	38.1 µM (inactive)	> 100 µM (inactive)	> 100 µM (inactive)	13.6 µM (inactive)	> 100 µM (inactive)	> 100 µM (inactive)	> 100 µM (inactive)
O=c1cc(-c2ccc(O)cc2)oc2cc(O[C@@H]3O[C@H](CO)[C@@H](O)[C@H](O)[C@H]3O)cc(O)c12 [APIGETRIN]	36.1 µM (inactive)	> 100 µM (inactive)	61.5 µM (inactive)	71.6 µM (inactive)	58.3 µM (inactive)	86.1 µM (inactive)	31.7 µM (inactive)	50.8 µM (inactive)	13.9 µM (inactive)	83.9 µM (inactive)	> 100 µM (inactive)	32.5 µM (inactive)	0.0752 µM (active)	26.2 µM (inactive)	72.9 µM (inactive)	> 100 µM (inactive)	> 100 µM (inactive)	53 µM (inactive)	57.9 µM (inactive)	98.4 µM (inactive)
COc1cc(C=C2C(C)=NN(c3cccc(Cl)c3)C23SCC(=O)N3c2nc3ccccc3s2)ccc1O (stereo not given)	24.3 µM (inactive)	27 µM (inactive)	19.4 µM (inactive)	29.4 µM (inactive)	32.4 µM (inactive)	20.8 µM (inactive)	20.1 µM (inactive)	30.1 µM (inactive)	30.8 µM (inactive)	18 µM (inactive)	35.3 µM (inactive)	15.8 µM (inactive)	13.2 µM (inactive)	26.1 µM (inactive)	27.3 µM (inactive)	13.4 µM (inactive)	32.7 µM (inactive)	33 µM (inactive)	29.4 µM (inactive)	33 µM (inactive)
CCCCn1cnc2c(SC)ncnc21	> 100 µM (inactive)	> 100 µM (inactive)	> 100 µM (inactive)	> 100 µM (inactive)	> 100 µM (inactive)	> 100 µM (inactive)	> 100 µM (inactive)	> 100 µM (inactive)	> 100 µM (inactive)	> 100 µM (inactive)	> 100 µM (inactive)	28.4 µM (inactive)	3.45 µM (inactive)	> 100 µM (inactive)	> 100 µM (inactive)	> 100 µM (inactive)	> 100 µM (inactive)	> 100 µM (inactive)	> 100 µM (inactive)	> 100 µM (inactive)
O=C1/C(=C2\Sc3c(ccc(Cl)c3Cl)C2=O)Sc2c1ccc(Cl)c2Cl	> 100 µM (inactive)	12.5 µM (inactive)	> 100 µM (inactive)	> 100 µM (inactive)	> 100 µM (inactive)	> 100 µM (inactive)	> 100 µM (inactive)	> 100 µM (inactive)	> 100 µM (inactive)	> 100 µM (inactive)	> 100 µM (inactive)	> 100 µM (inactive)	> 100 µM (inactive)	> 100 µM (inactive)	> 100 µM (inactive)	> 100 µM (inactive)	> 100 µM (inactive)	> 100 µM (inactive)	> 100 µM (inactive)	> 100 µM (inactive)
Cc1cnc2[nH]c(-c3cccc(F)c3)cc(=O)c2c1	0.111 µM (active)	0.0139 µM (active)	0.0802 µM (active)	< 0.01 µM (active)	0.0459 µM (active)	0.0505 µM (active)	0.0582 µM (active)	0.151 µM (active)	0.0327 µM (active)	1.4 µM (inactive)	0.161 µM (active)	0.0531 µM (active)	0.0229 µM (active)	0.0664 µM (active)	0.0252 µM (active)	0.0402 µM (active)	> 100 µM (inactive)	0.0308 µM (active)	0.161 µM (active)	0.0352 µM (active)
CC1CC[C@@]2(OC1)OC1C[C@H]3[C@@H]4CC[C@H]5CC(OC6OC(CO)C(O)C(OC7OC(CO)C(OC8OC(CO)C(O)C(OC9OC(CO)C(O)C(O)C9O)C8OC8OC(CO)C(O)C(O)C8O)C(O)C7O)C6O)[C@H](O)CC5(C)[C@H]4CCC3(C)C1[C@@H]2C (stereo not given in full)	1.43 µM (inactive)	0.9 µM (active)	3.27 µM (inactive)	6.59 µM (inactive)	5.47 µM (inactive)	1.31 µM (inactive)	1.7 µM (inactive)	5.31 µM (inactive)	4.79 µM (inactive)	4.88 µM (inactive)	5.57 µM (inactive)	5.18 µM (inactive)	1.11 µM (active)	1.9 µM (inactive)	2.22 µM (inactive)	2.55 µM (inactive)	8.75 µM (inactive)	3.52 µM (inactive)	1.44 µM (inactive)	7.45 µM (inactive)

From ChEMBL document CHEMBL1201862, “PubChem BioAssay data set” (2004)
